Source: patent EP1731520A1, “Pyrrolo[2,3-d]pyrimidine derivatives which are antagonists of adenosine A1, A2A, and A3” (OSI Pharmaceuticals, Inc., priority 1999, dated 2001)
pKi: −log10 of the molar value.

Biological target: human A1 receptor subtype (Homo sapiens, UniProt P30542)
Settings: Table 15, Adenosine A1 Receptor Selective Compounds

human A1 receptor subtype, sequence (P30542 whole entry): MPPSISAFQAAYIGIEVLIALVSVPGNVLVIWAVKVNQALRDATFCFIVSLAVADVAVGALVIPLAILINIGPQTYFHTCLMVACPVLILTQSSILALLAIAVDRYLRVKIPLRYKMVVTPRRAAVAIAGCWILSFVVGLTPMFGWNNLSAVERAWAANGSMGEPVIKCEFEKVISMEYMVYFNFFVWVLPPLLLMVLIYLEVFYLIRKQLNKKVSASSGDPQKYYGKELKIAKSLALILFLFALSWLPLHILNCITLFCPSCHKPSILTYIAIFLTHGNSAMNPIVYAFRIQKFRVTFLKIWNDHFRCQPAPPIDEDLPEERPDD

| Compound | Ki-A1 (selectivity versus other three subtypes) |
| --- | --- |
| O[C@H]1CC[C@H](Nc2nc(-c3ccccc3)nc3[nH]c(CN4CCSCC4)cc23)CC1 [Compound 1504] | * (at least 10 times more selective than other three subtypes.) |
| O[C@H]1CC[C@H](Nc2nc(-c3ccccc3)nc3[nH]c(CN4CCOCC4)cc23)CC1 [Compound 1503] | * (at least 10 times more selective than other three subtypes.) |
| CNC(=O)NCCNc1nc(-c2cccc(Cl)c2)nc2[nH]ccc12 [Compound 1502] | * (at least 10 times more selective than other three subtypes.) |
| CNC(=O)NC1CCCCC1Nc1nc(-c2ccccc2)nc2[nH]c(C)c(C)c12 (centres unmarked) [Compound 1500] | * (at least 10 times more selective than other three subtypes.) |

Same assay, conditions: read-out: Al Binding Ki; Table 7, Effect of C2-Substituent

| pKi | Compound |
| --- | --- |
| 7.31 | Cc1[nH]c2nc(-c3ccccc3F)nc(N[C@H]3CC[C@H](O)CC3)c2c1C [Compound 709] |

Same assay, conditions: saturation and competition radio ligand binding

| A1 receptor binding affinity compared with reference compounds 1318 or 1319 | Compound |
| --- | --- |
| equaled or surpassed | NC(=O)COCc1cc2c(N3CCC[C@H]3C(N)=O)nc(-c3ccccc3)nc2[nH]1 [Compound 1510] |
| equaled or surpassed | OC1CCC(Nc2nc(-c3ccccc3)nc3[nH]c(Cn4ccnc4)cc23)CC1 (centres unmarked) [Compound 1514, 4-(6-Imidazol-1-ylmethyl-2-phenyl-7H-pyrrolo[2,3-d]pyrimidin-4-ylamino)-cyclohexanol] |
| equaled or surpassed | NC(=O)c1cc2c(NC3CCC(O)CC3)nc(-c3ccccc3)nc2[nH]1 (centres unmarked) [Compound 1520, 4-(4-Hydroxy-cyclohexylamino)-2-phenyl-7H-pyrrolo[2,3-d]pyrimidine-6-carboxylic acid amide] |
| equaled or surpassed | NC(=O)C1CCCN1c1nc(-c2ccccc2)nc2[nH]c(COCC(=O)O)cc12 (centres unmarked) [Compound 1519, [4-(2-Carbamoyl-pyrrolidin-1-yl) -2-phenyl-7H-pyrrolo[2,3-d]pyrimidin-6-ylmethoxy]-acetic acid] |
| equaled or surpassed | NC(=O)[C@@H]1CCCN1c1nc(-c2ccccc2)nc2[nH]ccc12 [Compound 1506] |
| equaled or surpassed | COCc1cc2c(N3CCC[C@H]3C(N)=O)nc(-c3ccccc3)nc2[nH]1 [Compound 1507] |

Further lines, the compound ahead of its results:

| Compound | A1 receptor binding affinity compared with reference compounds 1318 or 1319 |
| --- | --- |
| 1-[6-(4-Hydroxy-4-phenyl-piperidin-1-yl-methyl)-2-phenyl-7H-pyrrolo[2,3-d]pyrimidin-4-yl]-pyrrolidine-2-carboxylic acid amide [Compound 1505] | equaled or surpassed |
| NC(=O)C1CC(O)CN1c1nc(-c2ccccc2)nc2[nH]ccc12 (centres unmarked) [Compound 1508, 4-Hydroxy-1-(2-phenyl-7H-pyrrolo[2,3-d]pyrimidin-4-yl]-pyrrolidine-2-carboxylic acid amide] | equaled or surpassed |
| OCCOCc1cc2c(N[C@H]3CC[C@H](O)CC3)nc(-c3ccccc3)nc2[nH]1 [Compound 1516] | equaled or surpassed |
| COC(=O)COCc1cc2c(N3CCCC3C(N)=O)nc(-c3ccccc3)nc2[nH]1 (centres unmarked) [Compound 1518, [4-(2-Carbamoyl-pyrrolidin-1-yl) -2-phenyl-7H-pyrrolo[2,3-d]pyrimidin-6-ylmethoxy]-acetic acid methyl ester] | equaled or surpassed |
| NC(=O)C1CCCN1c1nc(-c2ccccc2)nc2[nH]c(C(=O)O)cc12 (centres unmarked) [Compound 1511, [4-(2-Carbamoylpyrrolidin-1-yl)-2-phenyl-7H-pyrrolo[2,3-d]pyrimidine-6-carboxylic acid]] | equaled or surpassed |
| Cc1cc2c(N3CCC[C@H]3C(N)=O)nc(-c3ccccc3)nc2[nH]1 [Compound 1512, 1-(6-methyl-2-phenyl-7H-pyrrolo[2,3-d]pyrimidine-4-yl)-(S)-pyrrolidine-2-carboxylic acid amide] | equaled or surpassed |
